Where two headings read alike, the source gives them in different places.
Key:
hAR [1] = biological target: T1, hAR (Homo sapiens, UniProt P10275); experiment: co-transfection assay, AR agonist, CV-1 cells; assay type: cell-based; settings: for AR Agonist CV-1 Cells Efficacy (%): relative to maximum LUC production by reference agonist
T1 construct: expressed in transfected cells; host or cells: CV-1 cells (African green monkey kidney fibroblasts)
T1 sequence (P10275 1-920): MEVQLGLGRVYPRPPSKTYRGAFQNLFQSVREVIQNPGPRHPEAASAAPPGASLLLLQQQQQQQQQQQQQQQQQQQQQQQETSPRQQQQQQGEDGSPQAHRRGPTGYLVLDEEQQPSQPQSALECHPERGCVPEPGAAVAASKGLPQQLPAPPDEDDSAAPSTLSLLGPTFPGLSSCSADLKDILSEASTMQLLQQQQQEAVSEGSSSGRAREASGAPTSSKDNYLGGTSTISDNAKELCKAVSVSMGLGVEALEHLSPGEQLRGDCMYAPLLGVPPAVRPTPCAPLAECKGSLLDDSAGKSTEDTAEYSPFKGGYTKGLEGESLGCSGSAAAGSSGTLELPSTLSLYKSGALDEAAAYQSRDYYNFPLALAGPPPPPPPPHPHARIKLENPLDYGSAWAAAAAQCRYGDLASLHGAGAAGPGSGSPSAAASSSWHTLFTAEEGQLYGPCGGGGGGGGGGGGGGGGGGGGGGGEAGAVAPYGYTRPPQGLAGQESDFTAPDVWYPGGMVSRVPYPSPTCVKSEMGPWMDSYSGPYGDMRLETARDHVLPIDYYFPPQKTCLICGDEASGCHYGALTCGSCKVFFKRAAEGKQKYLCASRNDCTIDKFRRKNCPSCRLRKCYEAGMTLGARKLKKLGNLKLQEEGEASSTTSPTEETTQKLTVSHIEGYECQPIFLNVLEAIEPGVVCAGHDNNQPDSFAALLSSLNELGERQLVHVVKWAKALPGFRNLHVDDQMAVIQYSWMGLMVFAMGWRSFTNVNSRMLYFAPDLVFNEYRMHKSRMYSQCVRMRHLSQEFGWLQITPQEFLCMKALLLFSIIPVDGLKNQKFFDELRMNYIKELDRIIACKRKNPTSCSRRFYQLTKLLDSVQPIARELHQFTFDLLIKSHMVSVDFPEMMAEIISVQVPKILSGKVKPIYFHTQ

hAR [2] = biological target: T1, hAR; experiment: co-transfection assay, AR antagonist (in presence of DHT), CV-1 cells; assay type: cell-based; settings: for AR Antagonist CV-1 Cells Efficacy (%): maximal inhibition
[3] = AR Agonist CV-1 Cells Potency (nM), hAR in CV-1 cells

## CC[C@@H]1Oc2cc3[nH]c(=O)cc(C(F)(F)F)c3cc2N(CC(F)(F)F)[C@H]1C (racemic) [Compound 128, (±)-trans-3-Ethyl-1,2,3,6-tetrahydro-2-methyl-1-(2,2,2-trifluoroethyl)-9-(trifluoromethyl)-7H-[1,4]oxazino[3,2-g]quinolin-7-one]
hAR [1]
  EC50: > 10000 nM
hAR [1]; hAR in CV-1 cells
  AR Agonist CV-1 Cells Efficacy (%): na (na = not active (i.e. efficacy of < 20 and potency of > 10,000 nM for the cotransfection assay, and Ki > 1000 nM for the binding assay))
hAR [2]
  IC50: 1340 nM
hAR [2]; hAR in CV-1 cells, DHT at EC50
  AR Antagonist CV-1 Cells Efficacy (%): 42%

## CC[C@H]1Oc2cc3[nH]c(=O)cc(C(F)(F)F)c3cc2N(CC(F)(F)F)[C@H]1C (racemic) [Compound 129, (±)-cis-3-Ethyl-1,2,3,6-tetrahydro-2-methyl-1-(2,2,2-trifluoroethyl)-9-(trifluoromethyl)-7H-[1,4]oxazino[3,2-g]quinolin-7-one]
hAR [1]
  EC50: 1340 nM
hAR [1]; hAR in CV-1 cells
  AR Agonist CV-1 Cells Efficacy (%): 42%
hAR [2]
  IC50: 13 nM
hAR [2]; hAR in CV-1 cells, DHT at EC50
  AR Antagonist CV-1 Cells Efficacy (%): 76%

## O=c1cc(C(F)(F)F)c2cc3c(cc2[nH]1)OCC(CO)N3CC(F)(F)F (racemic) [Compound 130, (±)-1,2,3,6-Tetrahydro-2-(hydroxymethyl)-1-(2,2,2-trifluoroethyl)-9-(trifluoromethyl)-7H-[1,4]oxazino[3,2-g]quinolin-7-one]
hAR [1]; hAR in CV-1 cells
  AR Agonist CV-1 Cells Efficacy (%): 48%
hAR [2]; hAR in CV-1 cells, DHT at EC50
  AR Antagonist CV-1 Cells Efficacy (%): na (na = not active (i.e. efficacy of < 20 and potency of > 10,000 nM for the cotransfection assay, and Ki > 1000 nM for the binding assay))

## CC(=O)OCC1COc2cc3[nH]c(=O)cc(C(F)(F)F)c3cc2N1CC(F)(F)F (racemic) [Compound 131, (±)-1,2,3,6-Tetrahydro-2-(acetoxymethyl)-1-(2,2,2-trifluoroethyl)-9-(trifluoromethyl)-7H-[1,4]oxazino[3,2-g]quinolin-7-one]
hAR [1]
  EC50: 31 nM
hAR [1]; hAR in CV-1 cells
  AR Agonist CV-1 Cells Efficacy (%): 46%
hAR [2]
  IC50: > 10000 nM
hAR [2]; hAR in CV-1 cells, DHT at EC50
  AR Antagonist CV-1 Cells Efficacy (%): na (na = not active (i.e. efficacy of < 20 and potency of > 10,000 nM for the cotransfection assay, and Ki > 1000 nM for the binding assay))

## COCC1COc2cc3[nH]c(=O)cc(C(F)(F)F)c3cc2N1CC(F)(F)F (racemic) [Compound 132, (±)-1,2,3,6-Tetrahydro-2-(methoxymethyl)-1-(2,2,2-trifluoroethyl)-9-(trifluoromethyl)-7H-[1,4]oxazino[3,2-g]quinolin-7-one]
hAR [1]; AR Agonist CV-1 Cells Potency (nM)
  EC50: 1.7 nM
hAR [1]; hAR in CV-1 cells
  AR Agonist CV-1 Cells Efficacy (%): 72%
hAR [2]
  IC50: > 10000 nM
hAR [2]; hAR in CV-1 cells, DHT at EC50
  AR Antagonist CV-1 Cells Efficacy (%): na (na = not active (i.e. efficacy of < 20 and potency of > 10,000 nM for the cotransfection assay, and Ki > 1000 nM for the binding assay))

## CCC1COc2cc3[nH]c(=O)cc(C(F)(F)F)c3cc2N1CC(F)(F)F (racemic) [Compound 145, (±)-2-Ethyl-1,2,3,6-tetrahydro-1-(2,2,2-trifluoroethyl)-9-(trifluoromethyl)-7H-[1,4]oxazino[3,2-g]quinolin-7-one]
hAR [1]; hAR in CV-1 cells
  AR Agonist CV-1 Cells Efficacy (%): 69%
hAR [2]; hAR in CV-1 cells, DHT at EC50
  AR Antagonist CV-1 Cells Efficacy (%): 30%

## CC1COc2cc3[nH]c(=O)cc(C(F)(F)F)c3cc2N1CC(F)(F)F (single isomer, unassigned; (+)) [Compound 124, (+)-1,2,3,6-Tetrahydro-2-methyl-1-(2,2,2-trifluoroethyl)-9-(trifluoromethyl)-7H-[1,4]oxazino[3,2-g]quinolin-7-one]
hAR [1]; [3]
  EC50: 3.6 nM
hAR [1]; hAR in CV-1 cells
  AR Agonist CV-1 Cells Efficacy (%): 54%
hAR [2]
  IC50: > 10000 nM
hAR [2]; hAR in CV-1 cells, DHT at EC50
  AR Antagonist CV-1 Cells Efficacy (%): na (na = not active (i.e. efficacy of < 20 and potency of > 10,000 nM for the cotransfection assay, and Ki > 1000 nM for the binding assay))

## CC1COc2cc3[nH]c(=O)cc(C(F)(F)F)c3cc2N1CC(F)(F)F (single isomer, unassigned; (-)) [Compound 125, (−)-1,2,3,6-Tetrahydro-2-methyl-1-(2,2,2-trifluoroethyl)-9-(trifluoromethyl)-7H-[1,4]oxazino[3,2-g]quinolin-7-one]
hAR [1]; [3]
  EC50: 0.7 nM
hAR [1]; hAR in CV-1 cells
  AR Agonist CV-1 Cells Efficacy (%): 74%
hAR [2]; hAR in CV-1 cells, DHT at EC50
  AR Antagonist CV-1 Cells Efficacy (%): na (na = not active (i.e. efficacy of < 20 and potency of > 10,000 nM for the cotransfection assay, and Ki > 1000 nM for the binding assay))
hAR [2]; read-out: AR Antagonist CV-1 Cells Potency, hAR in CV-1 cells, DHT at EC50
  IC50: > 10000 nM

## O=c1[nH]c2cc3c(cc2c(C(F)(F)F)c1F)N(CC(F)(F)F)CCO3 [Compound 106, 8-Fluoro-1,2,3,6-tetrahydro-1-(2,2,2-trifluoroethyl)-9-(trifluoromethyl)-7H-[1,4]oxazino[3,2-g]quinolin-7-one]
hAR [1]
  EC50: 4 nM
hAR [1]; hAR in CV-1 cells
  AR Agonist CV-1 Cells Efficacy (%): 80%
hAR [2]
  IC50: > 10000 nM
hAR [2]; hAR in CV-1 cells, DHT at EC50
  AR Antagonist CV-1 Cells Efficacy (%): na (na = not active (i.e. efficacy of < 20 and potency of > 10,000 nM for the cotransfection assay, and Ki > 1000 nM for the binding assay))

## O=c1[nH]c2cc3c(cc2c(C(F)(F)F)c1Cl)N(CC(F)(F)F)CCO3 [Compound 107, 8-Chloro-1,2,3,6-tetrahydro-1-(2,2,2-trifluoroethyl)-9-(trifluoromethyl)-7H-[1,4]oxazino[3,2-g]quinolin-7-one]
hAR [1]
  EC50: 26 nM
hAR [1]; hAR in CV-1 cells
  AR Agonist CV-1 Cells Efficacy (%): 92%
hAR [2]
  IC50: > 10000 nM
hAR [2]; hAR in CV-1 cells, DHT at EC50
  AR Antagonist CV-1 Cells Efficacy (%): na (na = not active (i.e. efficacy of < 20 and potency of > 10,000 nM for the cotransfection assay, and Ki > 1000 nM for the binding assay))

## O=c1cc(C(F)F)c2cc3c(cc2[nH]1)OCCN3CC(F)(F)F [Compound 108, 9-(Difluoromethyl)-1,2,3,6-tetrahydro-1-(2,2,2-trifluoroethyl)-7H-[1,4]oxazino[3,2-g]quinolin-7-one]
hAR [1]
  EC50: 14 nM
hAR [1]; hAR in CV-1 cells
  AR Agonist CV-1 Cells Efficacy (%): 80%
hAR [2]
  IC50: > 10000 nM
hAR [2]; hAR in CV-1 cells, DHT at EC50
  AR Antagonist CV-1 Cells Efficacy (%): na (na = not active (i.e. efficacy of < 20 and potency of > 10,000 nM for the cotransfection assay, and Ki > 1000 nM for the binding assay))

## Cn1c(=O)cc(C(F)(F)F)c2cc3c(cc21)OCCN3CC(F)(F)F [Compound 109, 1,2,3,6-Tetrahydro-6-methyl-1-(2,2,2-trifluoroethyl)-9-(trifluoromethyl)-7H-[1,4]oxazino[3,2-g]quinolin-7-one]
hAR [1]
  EC50: > 10000 nM
hAR [1]; hAR in CV-1 cells
  AR Agonist CV-1 Cells Efficacy (%): na (na = not active (i.e. efficacy of < 20 and potency of > 10,000 nM for the cotransfection assay, and Ki > 1000 nM for the binding assay))
hAR [2]
  IC50: 24 nM
hAR [2]; hAR in CV-1 cells, DHT at EC50
  AR Antagonist CV-1 Cells Efficacy (%): 57%

## FC(F)(F)CN1CCOc2cc3[nH]c(=S)cc(C(F)(F)F)c3cc21 [Compound 110, 1,2,3,6-Tetrahydro-1-(2,2,2-trifluoroethyl)-9-(trifluoromethyl)-7H-[1,4]oxazino[3,2-g]quinolin-7-thione]
hAR [1]
  EC50: 44 nM
hAR [1]; hAR in CV-1 cells
  AR Agonist CV-1 Cells Efficacy (%): 90%
hAR [2]
  IC50: > 10000 nM
hAR [2]; hAR in CV-1 cells, DHT at EC50
  AR Antagonist CV-1 Cells Efficacy (%): na (na = not active (i.e. efficacy of < 20 and potency of > 10,000 nM for the cotransfection assay, and Ki > 1000 nM for the binding assay))

## CC(C)CN1CCOc2cc3c(cc21)c(C(F)(F)F)cc(=O)n3C [Compound 113, 1,2,3,6-Tetrahydro-1-isobutyl-6-methyl-9-(trifluoromethyl)-7H-[1,4]oxazino[3,2-g]quinolin-7-one]
hAR [1]
  EC50: > 10000 nM
hAR [1]; hAR in CV-1 cells
  AR Agonist CV-1 Cells Efficacy (%): na (na = not active (i.e. efficacy of < 20 and potency of > 10,000 nM for the cotransfection assay, and Ki > 1000 nM for the binding assay))
hAR [2]
  IC50: 61 nM
hAR [2]; hAR in CV-1 cells, DHT at EC50
  AR Antagonist CV-1 Cells Efficacy (%): 78%

## O=c1cc(C(F)(F)F)c2cc3c(cc2[nH]1)OCCN3 [Compound 120, 1,2,3,6-Tetrahydro-9-(trifluoromethyl)-7H-[1,4]oxazino[3,2-g]quinolin-7-one]
hAR [1]; hAR in CV-1 cells
  AR Agonist CV-1 Cells Efficacy (%): na (na = not active (i.e. efficacy of < 20 and potency of > 10,000 nM for the cotransfection assay, and Ki > 1000 nM for the binding assay))
hAR [2]; hAR in CV-1 cells, DHT at EC50
  AR Antagonist CV-1 Cells Efficacy (%): 69%

## O=c1cc(C(F)(F)F)c2cc3c(cc2[nH]1)OCCN3Cc1ccccn1 [Compound 122, 1,2,3,6-Tetrahydro-1-(2-pyridylmethyl)-9-(trifluoromethyl)-7H-[1,4]oxazino[3,2-g]quinolin-7-one]
hAR [1]
  EC50: > 10000 nM
hAR [1]; hAR in CV-1 cells
  AR Agonist CV-1 Cells Efficacy (%): na (na = not active (i.e. efficacy of < 20 and potency of > 10,000 nM for the cotransfection assay, and Ki > 1000 nM for the binding assay))
hAR [2]
  IC50: 632 nM
hAR [2]; hAR in CV-1 cells, DHT at EC50
  AR Antagonist CV-1 Cells Efficacy (%): 75%
